Reference: patent publication US10654856B2, “Method for preparing pyrrolo[3,2-D]pyrimidine compound, and intermediates thereof” (CHIA TAI TIANQING PHARMACEUTICAL GROUP CO., LTD., priority 2016, dated 2020)

Each compound was assayed against Toll-like receptor 7 (Homo sapiens (Human), UniProt Q9NYK1) (assay: Toll-like receptor 7 in vitro receptor binding activity screen (HEK-blue hTLR7 cell, Quanti-Blue alkaline phosphatase readout)). Settings: 24 h incubation, read-out: TLR7 EC50.
Type: cell-based
Protocol: Toll-Like Receptor 7 and Toll-Like Receptor 8 In Vitro Receptor Binding Activity Screen
HEK-blue hTLR7 cell and HEK-blue hTLR8 cell (available from InvivoGen)
heat inactivated fetal bovine serum
Anti Mycoplasma reagent Normocin™
The structures of GS-9620 and R848 used are as follows, wherein the preparation of GS-9620 could be referred to the process disclosed in US20100143301; R848 was commercially available from ABGENT (IMG-2208, specification: 0.5 mg).
1. Preparation of 96-well compound plate:
The compounds were gradient diluted with DMSO in 3-fold using liquid work station POD starting at a concentration of 10 mmol/L and 10 points were diluted (2nd column to 11th column, and each point was duplicated). At 12th column, 1 μL of 5 mg/mL positive compound R848 was added as positive control; and at 1st column, 1 μL of DMSO was added as negative control. Each well contained 1 μL of DMSO.
2. The cells in culture flask were collected and the cell density was diluted to 250,000 cells/mL.
3. 200 μL (50,000 cells/well) of cell suspension was added into prepared compound plate and the final concentration of DMSO in each well was 0.5%.
4. The culture plates containing cells and the compounds were incubated in CO2 incubator for 24 h at 37° C., 5% CO2.
5. After 24 h incubation, 20 μL of supernatant was removed from each well to a 96-well transparent assay plate. To each well of the assay plate was added 180 μL of Quanti-Blue reagent and the plate was incubated in an incubator at 37° C., 5% CO2 for 1 h.
6. After 1 h, the content of alkaline phosphatase in 20 μL of supernatant was determined using Microplate Reader OD650.
7. EC50 of each compound was obtained with Prism software.

Toll-like receptor 7, sequence (Q9NYK1 27-1049): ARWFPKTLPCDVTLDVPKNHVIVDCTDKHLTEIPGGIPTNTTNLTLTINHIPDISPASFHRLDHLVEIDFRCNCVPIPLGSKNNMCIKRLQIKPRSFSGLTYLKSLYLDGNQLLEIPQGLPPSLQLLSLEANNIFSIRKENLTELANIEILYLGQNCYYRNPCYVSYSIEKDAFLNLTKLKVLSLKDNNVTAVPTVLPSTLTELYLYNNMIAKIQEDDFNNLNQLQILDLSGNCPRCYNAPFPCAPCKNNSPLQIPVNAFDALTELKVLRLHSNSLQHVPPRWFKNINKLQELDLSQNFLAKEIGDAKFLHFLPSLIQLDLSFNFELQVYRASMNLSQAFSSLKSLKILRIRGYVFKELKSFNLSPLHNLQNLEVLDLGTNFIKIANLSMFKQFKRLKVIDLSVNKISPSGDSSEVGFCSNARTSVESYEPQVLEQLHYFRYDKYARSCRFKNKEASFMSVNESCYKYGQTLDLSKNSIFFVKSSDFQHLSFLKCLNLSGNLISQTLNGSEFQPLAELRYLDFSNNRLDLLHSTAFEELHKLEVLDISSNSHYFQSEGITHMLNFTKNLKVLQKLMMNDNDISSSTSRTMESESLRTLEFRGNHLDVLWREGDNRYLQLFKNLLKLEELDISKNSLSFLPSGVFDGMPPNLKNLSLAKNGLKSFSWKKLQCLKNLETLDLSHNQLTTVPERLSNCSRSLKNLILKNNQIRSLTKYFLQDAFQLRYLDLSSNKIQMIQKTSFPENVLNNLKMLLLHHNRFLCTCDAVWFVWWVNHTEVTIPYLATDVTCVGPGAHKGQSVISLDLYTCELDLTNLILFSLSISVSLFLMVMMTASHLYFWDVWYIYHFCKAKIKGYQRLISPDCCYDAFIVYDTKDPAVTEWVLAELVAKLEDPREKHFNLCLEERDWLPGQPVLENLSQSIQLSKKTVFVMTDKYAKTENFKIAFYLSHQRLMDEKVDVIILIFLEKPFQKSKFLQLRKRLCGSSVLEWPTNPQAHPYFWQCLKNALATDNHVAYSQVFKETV

| Structure (SMILES) | EC50 [µM] |
| --- | --- |
| CCCCOc1nc(N)c2[nH]cc(Cc3ccc(CN4CCC(O)C4)cc3)c2n1 (stereo not shown) [Compound 4] | 0.1 to 1 |
| CCCCOc1nc(N)c2[nH]cc(Cc3ccc(CN4CCCCC4)cc3)c2n1 [Compound 5] | 0.1 to 1 |
| CCCCOc1nc(N)c2[nH]cc(Cc3ccc(CN4CCOCC4)cc3)c2n1 [Compound 6] | 1 to 50 |
| CCCCOc1nc(N)c2[nH]cc(Cc3ccc(CN4CCC(OC)CC4)cc3)c2n1 [Compound 15] | 0.1 to 1 |
| CCCCOc1nc(N)c2[nH]cc(Cc3ccc(CN(CCC)CCC)cc3)c2n1 [Compound 10] | 0.1 to 1 |
| CCCCOc1nc(N)c2[nH]cc(Cc3ccc(CN4CC(OC)C4)cc3)c2n1 [Compound 12] | 0.1 to 1 |
| CCCCOc1nc(N)c2[nH]cc(Cc3ccc(CN4CCCC4)cc3)c2n1 [Compound 1, 2-butoxy-7-(4-(pyrrolidin-1-ylmethyl)benzyl)-5H-pyrrolo[3,2-d]pyrimidin-4-amine] | 0.1 to 1 |
| CCCCOc1nc(N)c2[nH]cc(Cc3ccc(CN(CC)CC)cc3)c2n1 [Compound 9] | 0.1 to 1 |
| CCCCOc1nc(N)c2[nH]cc(Cc3ccc(CN(C)C)cc3)c2n1 [Compound 8] | 0.1 to 1 |
| CCCCOc1nc(N)c2[nH]cc(Cc3ccc(CN4CCN(C)CC4)cc3)c2n1 [Compound 7] | 1 to 50 |
| CCCCOc1nc(N)c2[nH]cc(Cc3ccc(CN4CCC4)cc3)c2n1 [Compound 11] | 0.1 to 1 |
| CCCCOc1nc(N)c2[nH]cc(Cc3ccc(CN4CCC(F)(F)C4)cc3)c2n1 [Compound 2] | 1 to 50 |
| CCCCOc1nc(N)c2[nH]cc(Cc3ccc(CN4CCCN(C)CC4)cc3)c2n1 [Compound 13] | 0.1 to 1 |
| CCCCOc1nc(N)c2[nH]cc(Cc3ccc(CN4CCC(F)C4)cc3)c2n1 (stereo not shown) [Compound 3] | 0.1 to 1 |
| CCCCOc1nc(N)c2[nH]cc(Cc3ccc(CN4CCN(C(C)C)CC4)cc3)c2n1 [Compound 16] | 0.1 to 1 |
| CCCCOc1nc(N)c2[nH]cc(Cc3ccc(CN4CC(C)OC(C)C4)cc3)c2n1 (stereo not shown) [Compound 14] | 0.1 to 1 |
